Measurements published in patent US20230104936A1, “TRPML MODULATORS” (Casma Therapeutics, Inc., priority 2019, published 2023).

Tested on: TFEB
Assay: TFEB nuclear translocation assay, HeLa wt cells
Format: cell-based
Settings: 2 hrs compound treatment, Table 1 does not say HeLa wt or TRPML1 KO
Procedure, shortened: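 HeLa wt cells were treated with compound for 2 hrs at 37° C, then fixed in 4% PFA and immunostained for TFEB with an Alexa 488 secondary and Hoechst nuclear counterstain. Automated epifluorescence imaging at ×20 gave the ratio of nuclear TFEB intensity to a perinuclear ring region, from which AC50 was derived.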

SMILES | AC50 (Homo sapiens, HeLa, 2 h) [nM] | AC50 [nM]
O=S(=O)(Nc1cccc(Cl)c1N1CCC(c2c(F)cccc2F)CC1)c1ccc2c(c1)CCC2 [Compound A-298, N-{3-chloro-2-[4-(2,6-difluorophenyl)piperidin-1-yl]phenyl}-2,3-dihydro-1H-indene-5-sulfonamide] | ≤ 2000 | 
C[C@@H]1CN(CC2CCN(c3c(F)cccc3NS(=O)(=O)c3ccc(S(=O)(=O)N(C)C)cc3)CC2)C[C@H](C)O1 [Compound A-755, N4-[2-(4-{[(2R,6S)-2,6-dimethylmorpholin-4-yl]methyl}piperidin-1-yl)-3-fluorophenyl]-N1,N1-dimethylbenzene-1,4-disulfonamide] | ≤ 2000 | 
CN(C)S(=O)(=O)c1ccc(S(=O)(=O)Cc2ccccc2N2CCC(c3c(F)cccc3F)CC2)cc1 [Compound A-229, 4-((2-(4-(2,6-difluorophenyl)piperidin-1-yl)benzyl)sulfonyl)-N,N-dimethylbenzenesulfonamide] | ≤ 2000 | 
C[C@@H](c1cccc(F)c1N1CCCCC1)S(=O)(=O)c1ccc(S(=N)(=O)N(C)C)cc1 (single isomer, unassigned) [Compound A-929] | ≤ 2000 | 
C[C@@H]1CN(CC2CCN(c3c(F)cccc3NS(=O)(=O)c3ccc4c(c3)CCC4)CC2)C[C@H](C)O1 [Compound A-759, N-[2-(4-{[(2R,6S)-2,6-dimethylmorpholin-4-yl]methyl}piperidin-1-yl)-3-fluorophenyl]-2,3-dihydro-1H-indene-5-sulfonamide] | ≤ 2000 | 
CC(c1cccc(F)c1N1CCC(CN2C[C@@H](C)C(F)(F)[C@@H](C)C2)CC1)S(=O)(=O)c1ccc(S(=O)(=O)N(C)C)cc1 (stereo partly drawn) [Compound A-970, 4-{1-[2-(4-{[(3R,5S)-4,4-difluoro-3,5-dimethylpiperidin-1-yl]methyl}piperidin-1-yl)-3-fluorophenyl]ethanesulfonyl}-N,N-dimethylbenzene-1-sulfonamide] | ≤ 2000 | 
CN(C)S(=O)(=O)c1ccc(S(=O)(=O)n2cnc(N3CCC(c4ccc(Cl)cc4F)CC3)n2)cc1 [Compound A-62, 4-((3-(4-(4-chloro-2-fluorophenyl)piperidin-1-yl)-1H-1,2,4-triazol-1-yl)sulfonyl)-N,N-dimethylbenzenesulfonamide] | 8010 to 9990 | 
COCC1(C)CCN(c2ccccc2NS(=O)(=O)c2cc(C3OCCO3)cs2)CC1 [Compound A-619, 4-(1,3-dioxolan-2-yl)-N-{2-[4-(methoxymethyl)-4-methylpiperidin-1-yl]phenyl}thiophene-2-sulfonamide] | 2010 to 8000 | 
CS(=O)(=O)c1ccc(S(=O)(=O)Nc2ccccc2N2CCC3(CC2)OCCc2ccccc23)cc1 [Compound A-402, N-(2-{3,4-dihydrospiro[2-benzopyran-1,4′-piperidin]-1′-yl}phenyl)-4-methanesulfonylbenzene-1-sulfonamide] | 2010 to 8000 | 
C[C@@H]1CN(CC2CCN(c3c(F)cccc3NS(=O)(=O)c3ccc(S(C)(=O)=O)cc3)CC2)C[C@H](C)O1 [Compound A-776, N-[2-(4-{[(2R,6S)-2,6-dimethylmorpholin-4-yl]methyl}piperidin-1-yl)-3-fluorophenyl]-4-methanesulfonylbenzene-1-sulfonamide] | ≤ 2000 | 
CC(c1ccccc1N1CCN(C(=O)C(C)(C)C)CC1)S(=O)(=O)c1ccc(S(=O)(=O)N(C)C)cc1 (stereo not shown) [Compound A-474, 4-(1-{2-[4-(2,2-dimethylpropanoyl)piperazin-1-yl]phenyl}ethanesulfonyl)-N,N-dimethylbenzene-1-sulfonamide] | 2010 to 8000 | 
C[C@H](c1cccc(F)c1N1CCCCC1)S(=O)(=O)c1ccc(S(=N)(=O)N(C)C)cc1 (single isomer, unassigned) [Compound A-894] |  | 2010 to 8000
COCC1CCN(c2ccccc2NS(=O)(=O)c2ccc(S(=O)(=O)N(C)C)cc2)CC1 [Compound A-434, N4-{2-[4-(methoxymethyl)piperidin-1-yl]phenyl}-N1,N1-dimethylbenzene-1,4-disulfonamide] | ≤ 2000 | 
CN(C)S(=O)(=O)c1ccc(S(=O)(=O)Nc2ccccc2N2CCN(C3CCCCC3(F)F)CC2)cc1 (stereo not shown) [Compound A-626, N4-{2-[4-(2,2-difluorocyclohexyl)piperazin-1-yl]phenyl}-N1,N1-dimethylbenzene-1,4-disulfonamide] | ≤ 2000 | 
COCC1CCN(c2ccccc2NS(=O)(=O)c2ccc3c(c2)CC(C)(C)O3)CC1 [Compound A-614, N-{2-[4-(methoxymethyl)piperidin-1-yl]phenyl}-2,2-dimethyl-2,3-dihydro-1-benzofuran-5-sulfonamide] | ≤ 2000 | 
CS(=O)(=O)c1ccc(S(=O)(=O)Nc2ccccc2N2CCC3(CCO3)CC2)cc1 [Compound A-333, 4-methanesulfonyl-N-(2-{1-oxa-7-azaspiro[3.5]nonan-7-yl}phenyl)benzene-1-sulfonamide] | ≥ 10000 | 
CC(O)C1(C)CCN(c2ccccc2NS(=O)(=O)c2ccc(S(=O)(=O)N(C)C)cc2)CC1 (stereo not shown) [Compound A-557, N1-(2-(4-(1-hydroxyethyl)-4-methylpiperidin-1-yl)phenyl)-N4,N4-dimethylbenzene-1,4-disulfonamide] | 2010 to 8000 | 

SMILES | AC50 (Homo sapiens, HeLa, 2 h) [nM] | AC50 [nM]
CN(C)S(=O)(=O)c1ccc(S(=O)(=O)Nc2cccc(F)c2N2CCC(CN3CC4CCC(C3)O4)CC2)cc1 [Compound A-762, N4-{3-fluoro-2-[4-({8-oxa-3-azabicyclo[3.2.1]octan-3-yl}methyl)piperidin-1-yl]phenyl}-N1,N1-dimethylbenzene-1,4-disulfonamide] | ≤ 2000 | 
Cc1cnc(N2CCC(CN3CCC(F)(F)CC3)CC2)c(C(C)S(=O)(=O)c2ccc(S(=O)(=O)N(C)C)cc2)c1 (single isomer, unassigned) [Compound A-990, 4-((1-(2-(4-((4,4-difluoropiperidin-1-yl)methyl)piperidin-1-yl)-5-methylpyridin-3-yl)ethyl)sulfonyl)-N,N-dimethylbenzenesulfonamide] |  | ≤ 2000
COc1ccc(S(=O)(=O)Nc2cnncc2N2CCC(c3ncc(F)cc3F)CC2)cc1 [Compound A-206, N-{5-[4-(3,5-difluoropyridin-2-yl)piperidin-1-yl]pyridazin-4-yl}-4-methoxybenzene-1-sulfonamide] | ≥ 10000 | 
COCC1(C)CCN(c2ccccc2NS(=O)(=O)c2ccc(C3CC3(F)F)cc2)CC1 (stereo not shown) [Compound A-650, 4-(2,2-difluorocyclopropyl)-N-{2-[4-(methoxymethyl)-4-methylpiperidin-1-yl]phenyl}benzene-1-sulfonamide] | ≤ 2000 | 
Cc1ccc(S(=O)(=O)Nc2cccc(F)c2N2CCC(CN3C4COCC3C4)CC2)cc1 [Compound A-889, N-{3-fluoro-2-[4-({3-oxa-6-azabicyclo[3.1.1]heptan-6-yl}methyl)piperidin-1-yl]phenyl}-4-methylbenzene-1-sulfonamide] | 2010 to 8000 | 
CN(C)S(=O)(=O)c1ccc(S(=O)(=O)Nc2cccc(F)c2N2CCC3(CCC(=O)N3)CC2)cc1 [Compound A-796, N4-(3-fluoro-2-{2-oxo-1,8-diazaspiro[4.5]decan-8-yl}phenyl)-N1,N1-dimethylbenzene-1,4-disulfonamide] | ≥ 10000 | 
O=S(=O)(Nc1ccccc1N1CCCC1)c1ccc2c(c1)OCCCO2 [Compound A-372, N-[2-(pyrrolidin-1-yl)phenyl]-3,4-dihydro-2H-1,5-benzodioxepine-7-sulfonamide] | 2010 to 8000 | 
CN(C)S(=O)(=O)c1ccc(S(=O)(=O)Nc2ccccc2N2CCC(C(=O)C(C)(C)C)CC2)cc1 [Compound A-470, N4-{2-[4-(2,2-dimethylpropanoyl)piperidin-1-yl]phenyl}-N1,N1-dimethylbenzene-1,4-disulfonamide] | ≤ 2000 | 
COCCS(=O)(=O)Nc1cccc(Cl)c1N1CCOCC1 [Compound A-364, N-[3-chloro-2-(morpholin-4-yl)phenyl]-2-methoxyethane-1-sulfonamide] | ≥ 10000 | 
O=S(=O)(Nc1ccccc1N1CCC(c2ccc(Cl)cc2F)CC1)c1ccc(F)c(F)c1 [Compound A-80, N-{2-[4-(4-chloro-2-fluorophenyl)piperidin-1-yl]phenyl}-3,4-difluorobenzene-1-sulfonamide] | 2010 to 8000 | 
CN(C)S(=O)(=O)c1ccc(S(=O)(=O)Nc2ccccc2N2CCC(c3ccccc3C(=O)O)CC2)cc1 [Compound A-259, 2-(1-{2-[4-(dimethylsulfamoyl)benzenesulfonamido]phenyl}piperidin-4-yl)benzoic acid] | ≥ 10000 | 
CN(C)S(=O)(=O)c1ccc(S(=O)(=O)Nc2cccc(F)c2N2CCC(N3CCC34CCCOC4)CC2)cc1 (stereo not shown) [Compound A-917, N4-[3-fluoro-2-(4-{6-oxa-1-azaspiro[3.5]nonan-1-yl}piperidin-1-yl)phenyl]-N1,N1-dimethylbenzene-1,4-disulfonamide] | 2010 to 8000 | 
CN(C)S(=O)(=O)c1ccc(S(=O)(=O)Nc2ccccc2N2CCN(C(=O)C3(C)CCCCO3)CC2)cc1 (stereo not shown) [Compound A-448, N1,N1-dimethyl-N4-{2-[4-(2-methyloxane-2-carbonyl)piperazin-1-yl]phenyl}benzene-1,4-disulfonamide] | ≤ 2000 | 
CN(C)S(=O)(=O)c1ccc(S(=O)(=O)Nc2ccccc2N2CCC(C3CCCCO3)CC2)cc1 (stereo not shown) [Compound A-435, N1,N1-dimethyl-N4-{2-[4-(oxan-2-yl)piperidin-1-yl]phenyl}benzene-1,4-disulfonamide] | ≤ 2000 | 
COc1cccc(S(=O)(=O)Nc2ccccc2N2CCN(c3ccc(Cl)cc3F)CC2)c1 [Compound A-4, N-{2-[4-(4-chloro-2-fluorophenyl)piperazin-1-yl]phenyl}-3-methoxybenzene-1-sulfonamide] | ≤ 2000 | 
CN(C)S(=O)(=O)c1ccc(S(=O)(=O)Nc2ccccc2N2CCC(O)(c3ccccc3)CC2)cc1 [Compound A-148, N4-[2-(4-hydroxy-4-phenylpiperidin-1-yl)phenyl]-N1,N1-dimethylbenzene-1,4-disulfonamide] | ≤ 2000 | 
C[C@@H]1CN(CC2CCN(c3c(F)cccc3[C@H](C)S(=O)(=O)c3ccc(S(=O)(=O)N(C)C)cc3)CC2)C[C@H](C)O1 [Compound A-783, 4-[(1S)-1-[2-(4-{[(2R,6S)-2,6-dimethylmorpholin-4-yl]methyl}piperidin-1-yl)-3-fluorophenyl]ethanesulfonyl]-N,N-dimethylbenzene-1-sulfonamide] | ≤ 2000 | 
